From US20250127913A1, “BIFUNCTIONAL FOLATE RECEPTOR BINDING COMPOUNDS” (LYCIA THERAPEUTICS, INC., priority 2021, published 2025)
Like-named read-outs stand apart in the source and are kept apart here.

Tests used:
FOLR2 = FOLR2 (Homo sapiens (Human), UniProt P14207); assay: SPR binding kinetics of compounds to folate receptor (FOLR2 immobilized on CM5 chip)
Experimental: A Biacore 8K+ was used to measure the association and dissociation rates of example compounds to FOLR2 (Acro Biosystems, Cat: F02-H5223-100 μg). Briefly, FOLR2 was reconstituted according to the manufacture's instructions to 200 μg/mL. Both the active and reference surfaces of a Cytiva CM5 Series S Sensor Chip were activated with a 1:1 mixture of 400 mM EDC and 100 mM NHS for 420 s at 10 μL/min. 25 μg/mL FOLR2 diluted in Sodium Acetate pH 5.5 was injected on the active channel (Flow Cell 2) for 420 s at 10p/min. Both the reference and active surfaces were then capped with 1M ethanolamine, pH 8.5 for 420 s, achieving an immobilization level of ˜4200 RU. Example compounds were serially diluted 1:1 in running buffer (10 mM HEPES, 150 mM NaCl, 0.05% T20, pH 7.5, 2% DMSO) from 100 nM to 3.125 nM and flowed over the active and reference surfaces for 120 s, and then allowed to dissociate in running buffer for 600 s, at 30 uL/min. The FOLR2 immobilized active surface and the reference surface were regenerated with a 30 s pulse of Sodium Acetate pH 5.5 at 30 μL/min. Sensorgrams were solvent corrected, double-referenced, and the data fitted and analyzed in Biacore Insight Evaluation Software Version 3.0.11.15423.

TNFα trimer = TNFα trimer (Homo sapiens, UniProt P01375); assay: SPR binding kinetics of compounds to TNFα trimer; conditions: for Kd: class symbols; for koff: read-out: kd
Experimental: Streptavidin 100 μg/mL Streptavidin (Invitrogen Cat #: 434302) diluted in 10 mM sodium acetate, pH 4.5) was immobilized to both the reference and active surfaces as described in Example 51. The surfaces were conditioned with three injections of running Buffer (10 mM HEPES, 150 mMNaCl, 0.05% T20, pH 7.5, 2% DMSO) at a flow rate of 10 μL/min, Contact time: 60 s. Flow rate: 10 μL/min. The active surface was treated with biotinylated linked TNFα trimer 20 μg/mL diluted in running buffer at a flow rate of 5 μL/min contact time: 600 s, yielding a final response of ˜3000 RU. Example compounds were then serially diluted 1:1 in running buffer (10 mM HEPES, 150 mM NaCl, 0.05% T20, pH 7.5, 2% DMSO) from 30 uM to 937.5 nM and flowed over the active and reference surfaces from lowest concentration to greatest concentration in the single-cycle kinetics format, and then allowed to dissociate in running buffer for 7200 s, at 30 μL/min. Sensorgrams were solvent corrected, double-referenced, and the data fitted and analyzed in Biacore Insight Evaluation Software Version 3.0.11.15423.

THP-1 cells = assay: Compound mediated uptake of TNFα-pHrodo in THP-1 cells (flow cytometry); assay type: cell-based; parameters: key to Uptake in THP1 cells (run) 2 / Uptake in THP1 cells (run) 3 / Uptake in THP1 cells (run) 4: + = ΔMFI less than that of I-17; ++ = ΔMFI ≈ to that of I-17; +++ = ΔMFI greater than that of I-17; conditions: ΔMFI compared with I-17, uptake at 10 μM
Experimental: THP-1 cells, a monocytic leukemia cell line that endogenously express folate receptor beta, were used as a model system to measure example compound stimulated uptake of in-house produced TNFα conjugated to the pH sensitive fluorescent dye pHrodo green (ThermoFisher Scientific #P35369).
THP-1 cells were maintained in RPMI (Gibco #61870143) with 10% v/v FBS (VWR #89510-188) with 2 mM L-alanyl-L-glutamine dipeptide, 100 units/ml penicillin and 100 μg/ml streptomycin (Gibco #15140148). Cells were pelleted, resuspended in folate-free RPMI (Gibco #27016021) and seeded at 50,000 cells per well of a 96 well plate. Example compound was added to each well as a log 2 dilution series ranging from 20 μM to 125 nM final concentration. Cells were incubated for 24 hrs and washed/resuspended in phosphate buffered saline (pH 7.4) with 1% w/v BSA. Uptake was measured using a Novocyte Advanteon Flow Cytometer (Agilent Technologies) with the […] and FITC detection configuration.

[1] = test system: THP-1 cells overexpressing FOLR2; assay: LYTAC mediated uptake of TNFα-Alexa647 in THP-1 WT / FOLR2 overexpressing cells (ΔMFI); assay type: cell-based; parameters: New-uptake 100 nM-% Example 46 / New-uptake 10 nm-% Example 46: unit not given here; conditions: relative to Example 46 as printed (I-92 = 1.00)
Experimental: Hetero-bifunctional small molecule LYTACs consisting of a TNFα binding moiety, linker and folate receptor binding moiety were tested to determine if folate receptor can internalize TNFα. THP-1 cells overexpressing FOLR2 were generated by stable transduction with lentivirus encoding FOLR2-IRES-GFP. THP-1 WT and FOLR2 overexpressing cells were maintained in RPMI (Gibco #61870143) with 10% v/v FBS (VWR #89510-188) with 2 mM L-alanyl-L-glutamine dipeptide, 100 units/ml penicillin and 100 μg/ml streptomycin (Gibco #27016021). Stable FOLR2 over-expression cells were mixed at a 50:50 ratio with WT THP-1 cells and seeded in a 96 well plate at 50,000 cells in 100 μl folate-free RPMI (Gibco […]) with 10% v/v FBS, 2 mM L-alanyl-L-glutamine dipeptide, 100 units/ml penicillin and 100 μg/ml streptomycin. In a separate 96 well plate, TNFα/folate hetero-bifunctional small molecules were mixed with unmodified TNFα conjugated with Alexa647 by non-specific lysine chemistry. Small molecule LYTACs at a concentration of 600 nM (2× final concentration) in 100 μl folate-free RPMI+10% FBS were incubated at room temperature for 30 mins. The immune complex was serially diluted 3-fold to produce a dose response range from 300 nM-0.137 nM (final concentration). The TNFα/LYTAC complex mixture was transferred to the plate containing a 50:50 mixture of THP1 WT and FOLR2 over expressing cells and incubated for 2 h at 37° C. with 5% C02. Uptake in WT and FOLR2 overexpressing cells was evaluated by flow cytometry by comparing the median fluorescence intensity of […] in the GFP negative (WT) and GFP positive (FOLR2) populations and was quantified as the difference between the mean fluorescence intensities in the APC channel for the GFP positive and GFP negative populations (ΔMFI).

TNFα = TNFα (Homo sapiens (Human), UniProt P01375); assay: TNFα binding assay (time-resolved FRET, biotinylated TNFα); conditions: 1 nM biotinylated TNFα, 80 nM probe, 16 hr incubation; read-out: TNF-HTRF-biotin
Method in brief: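 Time-resolved FRET displacement of 80 nM acceptor probe from 1 nM biotinylated TNFα with 0.5 nM streptavidin-Tb in 20 mM Hepes pH 7.5, 10 mM MgCl2, 0.015% Tween-20, 0.05 mg/ml BSA, 2% DMSO. Read (ex 340, em 490/520 nm) after 16 hr. Duplicate dose responses normalized to DMSO and 100 nM reference inhibitor; IC50 by 4-parameter fit.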

folate receptor beta = folate receptor beta (Homo sapiens (Human), UniProt P14207); assay: Folate receptor binding assay (fluorescence polarization); conditions: 2.5 nM folate receptor beta, 2 nM FR-Cy probe, 2 hr incubation; read-out: FOLR2-FP
Method in brief: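 Fluorescence polarization competition with 2 nM folate–Cy5 probe and 2.5 nM receptor in 20 mM Hepes pH 7.5, 250 mM NaCl, Tween-20, 1% DMSO; 3-fold dilutions, 2 h incubation, ex 620/em 688 nm. Duplicates normalized to DMSO (high) and 1 μM folic acid (low); IC50 from 4-parameter fit.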

Chain of TNFα trimer (P01375 77-233 limits assumed): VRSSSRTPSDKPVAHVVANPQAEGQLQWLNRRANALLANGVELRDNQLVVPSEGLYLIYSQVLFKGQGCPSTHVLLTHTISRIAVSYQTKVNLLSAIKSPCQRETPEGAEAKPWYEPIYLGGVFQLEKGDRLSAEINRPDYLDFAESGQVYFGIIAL
Chain of FOLR2 (P14207 17-255): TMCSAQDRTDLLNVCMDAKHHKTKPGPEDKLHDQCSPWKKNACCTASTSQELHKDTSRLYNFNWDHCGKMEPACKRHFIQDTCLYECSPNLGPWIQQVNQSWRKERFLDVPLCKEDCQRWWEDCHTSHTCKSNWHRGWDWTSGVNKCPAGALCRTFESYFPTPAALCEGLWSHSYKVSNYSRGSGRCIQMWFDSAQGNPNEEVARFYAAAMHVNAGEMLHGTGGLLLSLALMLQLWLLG
Chain of TNFα (P01375 77-233): as the sequence (P01375 77-233 limits assumed) above
Chain of folate receptor beta (P14207 17-255): as the sequence (P14207 17-255) above

| Structure (SMILES) | Kd (FOLR2) [nM] | Kd (TNFα trimer) [nM] | koff (TNFα trimer; SPR single cycle kinetics, TNFalpha trimer immobilized) [s⁻¹] | koff (TNFα trimer) [s⁻¹] | Uptake in THP1 cells (run) 2 (THP-1 cells) | Uptake in THP1 cells (run) 3 (THP-1 cells) | Uptake in THP1 cells (run) 4 (THP-1 cells) | New-uptake 10 nm-% Example 46 ([1]; 10 nM compound) | New-uptake 100 nM-% Example 46 ([1]; 100 nM compound) | IC50 (TNFα) [nM] | IC50 (folate receptor beta) [nM] |
| --- | --- | --- | --- | --- | --- | --- | --- | --- | --- | --- | --- |
| Cc1nc2cc(F)c(-c3cnc(OCCCCCn4cc(COCCOCCNC(=O)CC[C@H](NC(=O)c5ccc(NCc6cnc7nc(N)nc(O)c7n6)cc5)C(=O)O)nn4)nc3)nc2c(N[C@H](C)c2cc(C#N)ccc2F)c1Cl [Compound I-16, N2-(4-(((2-amino-4-hydroxypteridin-6-yl)methyl)amino)benzoyl)-N5-(2-(2-((1-(5-((5-(7-chloro-8-((I-1-(5-cyano-2-fluorophenyl)ethyl)amino)-3-fluoro-6-methyl-1,5-naphthyridin-2-yl)pyrimidin-2-yl)oxy)pentyl)-1H-1,2,3-triazol-4-yl)methoxy)ethoxy)ethyl)-L-glutamine] | 0.3 | < 100 |  | 5.81e-05 | +++ | +++ | ++ |  |  |  |  |
| Cc1nc2cc(F)c(-c3cnc(OCCCCCn4cc(COCCOCCOCCOCCNC(=O)CC[C@H](NC(=O)c5ccc(NCc6cnc7nc(N)nc(O)c7n6)cc5)C(=O)O)nn4)nc3)nc2c(N[C@H](C)c2cc(C#N)ccc2F)c1Cl [Compound I-17, (S)-18-(4-(((2-amino-4-hydroxypteridin-6-yl)methyl)amino)benzamido)-1-(1-(5-((5-(7-chloro-8-((I-1-(5-cyano-2-fluorophenyl)ethyl)amino)-3-fluoro-6-methyl-1,5-naphthyridin-2-yl)pyrimidin-2-yl)oxy)pentyl)-1H-1,2,3-triazol-4-yl)-15-oxo-2,5,8,11-tetraoxa-14-azanonadecan-19-oic acid] |  | < 1000 |  |  | ++ | ++ | +++ |  |  |  |  |
| Cc1nc2ccc(-c3cnc(OCCOCCn4cc(COCCOCCOCCOCCNC(=O)CC[C@H](NC(=O)c5ccc(NCc6cnc7nc(N)nc(O)c7n6)cc5)C(=O)O)nn4)nc3)cc2n1Cc1ccccc1OC(F)F [Compound I-24, (S)-18-(4-(((2-amino-4-hydroxypteridin-6-yl)methyl)amino)benzamido)-1-(1-(2-(2-((5-(1-(2-(difluoromethoxy)benzyl)-2-methyl-1H-benzo[d]imidazol-6-yl)pyrimidin-2-yl)oxy)ethoxy)ethyl)-1H-1,2,3-triazol-4-yl)-15-oxo-2,5,8,11-tetraoxa-14-azanonadecan-19-oic acid] | 0.4 | < 5000 |  |  |  | + | + |  |  |  |  |
| Cc1nc2cc(F)c(-c3cnc(N4CCN(C(=O)COCCn5cc(CN(CCO)CCOCCOCCOCCNC(=O)CC[C@H](NC(=O)c6ccc(NCc7cnc8nc(N)nc(O)c8n7)cc6)c6nn[nH]n6)nn5)CC4)nc3)nc2c(N[C@H](C)c2cc(C#N)ccc2F)c1Cl [Compound I-80, 4-(((2-amino-4-hydroxypteridin-6-yl)methyl)amino)-N—((S)-3-((1-(2-(2-(4-(5-(7-chloro-8-(((R)-1-(5-cyano-2-fluorophenyl)ethyl)amino)-3-fluoro-6-methyl-1,5-naphthyridin-2-yl)pyrimidin-2-yl)piperazin-1-yl)-2-oxoethoxy)ethyl)-1H-1,2,3-triazol-4-yl)methyl)-1-hydroxy-16-oxo-19-(2H-tetrazol-5-yl)-6,9,12-trioxa-3,15-diazanonadecan-19-yl)benzamide] |  |  |  |  |  |  |  | 0.89 | 1.02 | 36 | 12 |

More lines, main results first:

| Kd (FOLR2) [nM] | Kd (TNFα trimer) [nM] | koff (TNFα trimer; SPR single cycle kinetics, TNFalpha trimer immobilized) [s⁻¹] | Structure (SMILES) | koff (TNFα trimer) [s⁻¹] | Uptake in THP1 cells (run) 2 (THP-1 cells) | Uptake in THP1 cells (run) 3 (THP-1 cells) | Uptake in THP1 cells (run) 4 (THP-1 cells) | New-uptake 10 nm-% Example 46 ([1]; 10 nM compound) | New-uptake 100 nM-% Example 46 ([1]; 100 nM compound) | IC50 (TNFα) [nM] | IC50 (folate receptor beta) [nM] |
| --- | --- | --- | --- | --- | --- | --- | --- | --- | --- | --- | --- |
| 0.5 | < 100 | 3.65e-06 | Nc1nc(O)c2nc(CNc3ccc(C(=O)N[C@@H](CCC(=O)NCCOCCOCCOCCOCc4cn(CCCCCOc5ccc(-c6ccc7nc(COc8cccc(N9CCCC9=O)c8)n(Cc8ccccc8OC(F)F)c7c6)cn5)nn4)C(=O)O)cc3)cnc2n1 [Compound I-25, (S)-18-(4-(((2-amino-4-hydroxypteridin-6-yl)methyl)amino)benzamido)-1-(1-(5-((5-(1-(2-(difluoromethoxy)benzyl)-2-((3-(2-oxopyrrolidin-1-yl)phenoxy)methyl)-1H-benzo[d]imidazol-6-yl)pyridin-2-yl)oxy)pentyl)-1H-1,2,3-triazol-4-yl)-15-oxo-2,5,8,11-tetraoxa-14-azanonadecan-19-oic acid] |  | + | +++ | ++ |  |  |  |  |
| 0.2 | < 5000 |  | Cc1nc2ccc(-c3cnn(CCCCCCn4cc(COCCOCCOCCOCCNC(=O)CC[C@H](NC(=O)c5ccc(NCc6cnc7nc(N)nc(O)c7n6)cc5)C(=O)O)nn4)c3)cn2c1Cc1cc(Cl)ccc1Cl [Compound I-26, (S)-18-(4-(((2-amino-4-hydroxypteridin-6-yl)methyl)amino)benzamido)-1-(1-(6-(4-(3-(2,5-dichlorobenzyl)-2-methylimidazo[1,2-a]pyridin-6-yl)-1H-pyrazol-1-yl)hexyl)-1H-1,2,3-triazol-4-yl)-15-oxo-2,5,8,11-tetraoxa-14-azanonadecan-19-oic acid] |  | +++ | + | + |  |  |  |  |
